Measurements from US9278093B2, “Aldosterone synthase inhibitors” (Merck Sharp & Dohme Corp., priority 2012, dated 2016).

Experiments:
human CYP11B2 = human CYP11B2 (Homo sapiens (Human), UniProt P19099); assay: V79-Human-CYP11B2 Assay; type: cell-based; details: V79MZh11B2 cells, substrate deoxycorticosterone 100 nM, 50 min incubation
Protocol: (§1) V79MZh11B1 and V79MZh11B2 cells (8×10^5 cells/well) were grown on 24-well culture plates until confluence. Before testing, the DMEM culture medium was removed and 450 μl of fresh DMEM containing the inhibitor was added to each well. After a preincubation step of 60 min at 37° C., the reaction was started by the addition of 50 μl of DMEM in which the substrate deoxycorticosterone (containing 0.15 μCi of [1,2-3H]-deoxycorticosterone in ethanol, final test concentration 100 nM) was dissolved. Incubation times were 25 min for V79MZh11B1 and 50 min for V79MZh11B2 cells at 37° C., respectively. The enzyme reactions were stopped by extracting the supernatant with ethyl acetate. Samples were centrifuged (10.000 g, 5 min) and the solvent was pipetted into fresh cups. After evaporation of the solvent, the steroids were redissolved in 40 μl of […] and analyzed by HPLC. Detection and quantification of the steroids were performed using a radioflow detector. To first estimate the different IC50 values, five different concentrations ranging from 1 to 10.000 nM were measured. For the following IC50 determination, three different concentrations (repeat-determinations) were measured for each […] value of each inhibitor in which the second concentration led to an inhibition of approximately 40 to 60%. […] The final IC50 value was estimated as the average of three or four independent IC50 values and a selectivity factor corresponding to the ratio between the […] values of CYP11B1 and CYP11B2 was calculated for each substance.

human CYP11B1 = human CYP11B1 (Homo sapiens (Human), UniProt P15538); assay: V79-Human-CYP11B1 Assay; type: cell-based; details: V79MZh11B1 cells, substrate deoxycorticosterone 100 nM, 25 min incubation
human CYP11B1, sequence (P15538 25-503): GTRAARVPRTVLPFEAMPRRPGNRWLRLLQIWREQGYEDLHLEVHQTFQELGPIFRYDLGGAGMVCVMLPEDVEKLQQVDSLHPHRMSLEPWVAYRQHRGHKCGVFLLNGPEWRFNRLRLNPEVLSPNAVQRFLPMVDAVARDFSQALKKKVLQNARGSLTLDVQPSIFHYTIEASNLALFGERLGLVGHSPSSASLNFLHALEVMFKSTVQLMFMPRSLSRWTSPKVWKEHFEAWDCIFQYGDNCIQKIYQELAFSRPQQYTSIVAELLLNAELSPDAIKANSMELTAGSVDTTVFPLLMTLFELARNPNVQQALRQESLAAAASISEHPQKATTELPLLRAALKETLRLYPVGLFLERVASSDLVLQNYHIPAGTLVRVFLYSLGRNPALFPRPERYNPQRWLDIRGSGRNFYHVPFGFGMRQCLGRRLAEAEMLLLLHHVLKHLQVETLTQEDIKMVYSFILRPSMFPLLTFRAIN
Protocol: as §1

human CYP11B2, sequence (P19099 25-503): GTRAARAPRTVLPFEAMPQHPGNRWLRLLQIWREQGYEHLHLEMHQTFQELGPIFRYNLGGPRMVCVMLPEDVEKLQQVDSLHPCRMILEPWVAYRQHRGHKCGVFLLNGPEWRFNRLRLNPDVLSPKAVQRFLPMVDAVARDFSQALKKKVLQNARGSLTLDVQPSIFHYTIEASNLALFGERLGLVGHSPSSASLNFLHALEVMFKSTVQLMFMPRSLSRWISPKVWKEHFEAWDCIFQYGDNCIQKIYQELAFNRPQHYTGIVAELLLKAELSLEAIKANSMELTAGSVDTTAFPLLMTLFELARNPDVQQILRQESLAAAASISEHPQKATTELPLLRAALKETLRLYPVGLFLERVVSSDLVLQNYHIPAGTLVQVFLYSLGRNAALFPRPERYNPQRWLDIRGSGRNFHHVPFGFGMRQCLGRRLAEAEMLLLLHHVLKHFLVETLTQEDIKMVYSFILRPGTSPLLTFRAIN

| IC50 (human CYP11B2) [nM] | IC50 (human CYP11B1) [nM] | Compound |
| --- | --- | --- |
| 7.3 | 2290 | Cc1nnc2n1-c1c(F)cc(-c3cncc(F)c3C3CC3)cc1CC2 [Example 1, 7-(4-cyclopropyl-5-fluoropyridin-3-yl)-9-fluoro-1-methyl-4,5-dihydro-[1,2,4]triazolo[4,3-a]quinoline] |
| 21.6 | 9800 | Cc1nnc2n1-c1c(F)cc(-c3cncc(F)c3Cl)cc1CC2 [Example 4, 7-(4-chloro-5-fluoropyridin-3-yl)-9-fluoro-1-methyl-4,5-dihydro-[1,2,4]triazolo[4,3-a]quinoline] |
| 6 | 1420 | Cc1c(F)cncc1-c1cc(F)c2c(c1)CCc1nnc(C)n1-2 [Example 2, 9-fluoro-7-(5-fluoro-4-methylpyridin-3-yl)-1-methyl-4,5-dihydro-[1,2,4]triazolo[4,3-a]quinoline] |
| 9.5 | 3970 | Cc1nnc2n1-c1c(F)cc(-c3cncc(F)c3C(C)C)cc1CC2 [Example 3, 9-fluoro-7-(5-fluoro-4-isopropylpyridin-3-yl)-1-methyl-4,5-dihydro-[1,2,4]triazolo[4,3-a]quinoline] |
